Laboratory results: US20090061461A1, “Phosphorylated or Non-Phosphorylated MPR as Diagnostic Marker or Therapeutic Target” (priority 2005, published 2009)

Key:
[1] = tested on: MCF-7 breast cancer cells; test: Stable transfection of MCF-7 cells, colony formation / cell count after 2 weeks of selection; format: cell-based, human; conditions: MCF-7 cells transfected with pcDNA3.1 HA-tagged mPR plasmid, 2 weeks hygromycin B selection
Experimental: Colonies were grown from all transfected cell lines. […] This anti-proliferative effect of both of these mutants was not observed using transiently transfected cells used for immunohistochemistry in cytospins because these were assayed shortly after transfection.
Therefore, treatments that would promote the formation of the hypophosphorylated dimeric form in tumors would be highly desirable. […] Therefore the interaction of an SH3-domain-containing protein that interacts with the SH3-domain target sequence that contains serine 56 is necessary to manifest the antiproliferative phenotype associated with non-phosphorylated serine 180. The interaction of this unknown protein is inhibited by phosphorylation of serine 56, thereby preventing the antiproliferative phenotype and enhancing proliferative ability. Conversely, when an SH2-domain-containing protein can bind to the phosphorylated tyrosine 179 adjacent to non-phosphorylated serine 180 then the antiproliferative effect is antagonized, and cells can proliferate. […]
MCF-7 cells stably transfected with mPR and mutants, respectively, were established. […] To that aim colonies were trypsinized, counted and diluted in two-fold dilutions.

DCC = biological target: T1, DCC (Homo sapiens, UniProt P43146); test: Immune precipitation of DCC with HA-tagged mPR, Western blot with anti-DCC AF5; format: binding; conditions: MCF7 cells, 24 hours after transfection, anti-HA immunoprecipitation
T1 construct: endogenous in cells; host or cells: MCF7 human breast cancer cells, transfected only with mPR-3HA expression plasmids
Experimental: Therefore it is most reasonable to assume that mPR will be detectable in a complex with DCC. […] Aliquots of 2×10^6 MCF7 cells were transfected as described below with each of the mPR expression vectors.
After 24 hours the mPR-3HA proteins were affinity purified with an anti-HA anti-body described above. The AF5 anti DCC human monoclonal antibody (Merck Biosciences OP45 Anti-DCC Mouse mAb AF5) was used to detect the presence of DCC by Western Blot. Normalized amounts of the precleared incubation reaction, the final supernatant after removal of the immuno-precipitate, and of the immuno-precipitated pellet were loaded to SDS-PAGE gels, blotted to membranes, and Western Blotted with the AF5 anti-DCC antibody. […] The size of the band was slightly higher than the predicted 158 kDa for DCC, possibly due to post-translational modification of the protein. An approximately 100 kDa band also reacted with the anti-DCC monoclonal antibody in Western Blot, which may represent a proteolytic fragment of DCC. […] We are not naively claiming a phosphorylated form of mPR interacts with DCC, which is not shown by our data. […]
MCF-7 breast cancer cells were transfected by Lipofection with 5 μg of pcDNA3.1 containing HA-tagged mPR-wt, tagged mutant S56A, S180A, S56A/S180A, or tagged mutant S56A/C128S/[…]. […] For IP the cells were trypsinized, counted and cell pellets were snap frozen and stored at −80° C. […]

[2] = tested on: breast cancer exhibiting a positive ER status; conditions: patients with breast cancer of positive ER status; cited from earlier work

T1 sequence (P43146 26-1447): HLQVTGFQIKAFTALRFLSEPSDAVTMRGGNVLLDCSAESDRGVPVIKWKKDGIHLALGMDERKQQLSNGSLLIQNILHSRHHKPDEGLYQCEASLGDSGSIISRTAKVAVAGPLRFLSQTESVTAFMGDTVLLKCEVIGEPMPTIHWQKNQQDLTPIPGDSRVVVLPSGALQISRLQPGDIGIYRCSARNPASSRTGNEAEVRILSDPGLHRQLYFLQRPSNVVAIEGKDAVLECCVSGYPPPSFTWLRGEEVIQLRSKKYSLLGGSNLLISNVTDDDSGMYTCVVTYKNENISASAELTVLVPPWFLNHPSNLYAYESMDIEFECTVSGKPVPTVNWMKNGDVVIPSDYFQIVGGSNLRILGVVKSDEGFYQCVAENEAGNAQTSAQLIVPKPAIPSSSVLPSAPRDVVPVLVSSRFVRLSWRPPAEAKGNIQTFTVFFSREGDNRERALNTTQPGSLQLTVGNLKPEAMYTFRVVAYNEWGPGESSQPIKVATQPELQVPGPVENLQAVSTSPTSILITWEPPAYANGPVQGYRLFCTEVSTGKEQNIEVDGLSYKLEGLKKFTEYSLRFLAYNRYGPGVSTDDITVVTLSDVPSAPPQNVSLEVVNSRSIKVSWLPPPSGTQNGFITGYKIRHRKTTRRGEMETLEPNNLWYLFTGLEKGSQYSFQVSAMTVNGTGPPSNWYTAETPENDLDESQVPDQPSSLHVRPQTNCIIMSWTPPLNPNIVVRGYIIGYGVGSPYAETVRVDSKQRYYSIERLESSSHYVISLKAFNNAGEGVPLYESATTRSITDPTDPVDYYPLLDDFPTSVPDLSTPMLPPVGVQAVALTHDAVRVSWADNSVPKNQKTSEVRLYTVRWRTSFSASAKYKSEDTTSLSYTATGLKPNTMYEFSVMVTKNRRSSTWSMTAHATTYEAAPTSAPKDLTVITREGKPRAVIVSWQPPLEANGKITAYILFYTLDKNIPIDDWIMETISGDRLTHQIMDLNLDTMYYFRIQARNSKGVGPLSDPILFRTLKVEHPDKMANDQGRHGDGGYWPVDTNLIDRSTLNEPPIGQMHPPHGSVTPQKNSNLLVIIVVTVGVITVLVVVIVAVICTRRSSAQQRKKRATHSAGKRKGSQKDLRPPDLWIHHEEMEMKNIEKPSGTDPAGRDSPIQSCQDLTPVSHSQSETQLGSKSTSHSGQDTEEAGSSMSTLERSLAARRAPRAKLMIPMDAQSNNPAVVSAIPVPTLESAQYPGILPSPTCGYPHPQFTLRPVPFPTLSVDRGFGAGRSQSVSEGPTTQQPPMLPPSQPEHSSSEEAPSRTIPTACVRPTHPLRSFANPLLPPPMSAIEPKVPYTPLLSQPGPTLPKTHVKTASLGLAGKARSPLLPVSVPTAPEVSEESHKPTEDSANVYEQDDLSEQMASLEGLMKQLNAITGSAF

Compound	number of colonies / ability to proliferate [1]	other results
S56A/S180A: HA-tagged mPR (PGRMC1) with serine 56 and serine 180 mutated to alanine, expressed from plasmid pcDNA3.1	drastically reduced to effectively background levels	–
wild-type mPR: HA-tagged wild-type membrane associated progesterone receptor component 1 expressed from pcDNA3_MPR-3HA	–	DCC band in immune precipitation pellet (DCC): A high molecular weight DCC band was observed
S56A/C128S/S180A: HA-tagged mPR triple mutant: serine 56 and 180 to alanine, cysteine 128 to serine	able to proliferate	–
CC/C(=C(\c1ccccc1)c1ccc(OCCN(C)C)cc1)c1ccccc1 [tamoxifen]	–	fraction of cases in which effective [2]: approximately 50%
